The text below walks through data of patent publication US10525069B2, “Treatment of urinary tract infection” (BIOMEDICALS SWEDEN AB, priority 2014, dated 2020).

In the assay the test system is UTI. The assay is described as follows: Clinical course of UTI (occurrence, relapse, symptoms) in treated women. It counts as in vivo, human. The settings on record: Example 4: person, antibiotic received twice, before treatment with the composition. The method, then:
One wheelchair-bound person, with recurrent UTI (UTI every week) was treated according to an embodiment of the invention. Prior to the treatment, the urine of the person was tested using bacteria test strips (NITRISTIC®, RAERAD Products, Sweden) following the instructions from the manufacturer. […] The person was given a composition with 1 g calcium carbonate (pH-KALK, pH Balans AB, Sweden) together with 2 g D-mannose (DM, BECKMAN-KENKO GMBH, Germany) or 1 g citric acid (SANTA MARIA AB, Sweden) together with 2 g D-mannose (DM, BECKMAN-KENKO GMBH, Germany). The compositions were taken in an alternating administration pattern 5 times per day (see Table 2 for details). The initial treatment lasted for 4 days. […] After the initial treatment, the person continued with the treatment to prevent UTI according to Table 2 alternating pH three times a day for five months. […] After discontinuing the treatment, the person relapsed with UTI within 3 weeks.
Prior to the treatment, the urine was tested using bacteria test strips (NITRISTIC®, RAERAD Products, Sweden) following the instructions from the manufacturer.
The person was then treated according to an embodiment of the invention (see Table 4 for details). […] Furthermore the bacteria test strips were negative.

Regarding `CC(C)(C)C(=O)OCOC(=O)[C@@H]1N2C(=O)[C@@H](/N=C/N3CCCCCC3)[C@H]2SC1(C)C` [SELEXID], the “result of antibiotic treatment against UTI” value is “no apparent results”.
